Assay: in vitro
Conditions: for Concentration (μM) of analyte PEA, 0 min / Concentration (μM) of analyte PEA, 10 min / Concentration (μM) of analyte PEA, 20 min / Concentration (μM) of analyte PEA, 30 min / Concentration (μM) of analyte PEA, 60 min / % Remaining of Initial (n = 1), 0 min / % Remaining of Initial (n = 1), 10 min / % Remaining of Initial (n = 1), 20 min / % Remaining of Initial (n = 1), 30 min / % Remaining of Initial (n = 1), 60 min / Concentration, analyte PEA / % Remaining of Initial (n = 1): 1 μM
Procedure, shortened: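 Test article at 1 μM final was pre-equilibrated in liver S9 at 37° C before cofactor addition started the reaction. Samples were taken at 0–60 min and quenched in acidified acetonitrile. Prodrug and PEA were quantified by LC-MS/MS; percent remaining was relative to time 0, with half-life from single-phase exponential decay.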

[1] = male, Sprague-Dawley, rat, 0 min
[2] = male, Sprague-Dawley, rat, 10 min
[3] = male, Sprague-Dawley, rat, 20 min
[4] = male, Sprague-Dawley, rat, 30 min
[5] = male, Sprague-Dawley, rat, 60 min
[6] = male, Sprague-Dawley, rat, s9, 0 h
[7] = male, Sprague-Dawley, rat, s9, 10 min
[8] = male, Sprague-Dawley, rat, s9, 20 min
[9] = male, Sprague-Dawley, rat, s9, 0.5 h
[10] = male, Sprague-Dawley, rat, s9, 1 h

For `CCCCCCCCCCCCCCCC(=O)NCCOC(=O)CCC(=O)OCC(COC(=O)CCC)OC(=O)CCC` (stereo not shown) [Compound I-11], which “Concentration (μM) of analyte PEA, 0 min” value (both, human, 0 min) is on record?
Its value is 0.047 µM.

And the “Concentration (μM) of analyte PEA, 10 min” value (“Concentration (μM) … 10 min” for short) (both, human, 10 min)?
Its value is 0.25 µM.

And the “Concentration (μM) of analyte PEA, 20 min” value (“Concentration (μM) … 20 min” for short) (both, human, 20 min)?
Its value is 0.18 µM.

What about the “Concentration (μM) of analyte PEA, 30 min” value (“Concentration (μM) … 30 min” for short) (both, human, 30 min) of the same compound?
The value was 0.14 µM.

What about the “Concentration (μM) of analyte PEA, 60 min” value (“Concentration (μM) … 60 min” for short) (both, human, 60 min) of the same compound?
The value was 0.033 µM.

What about the “% Remaining of Initial (n = 1), 0 min” value (both, human, s9, 0 h) of the same compound?
Its value is 100%.

And the “% Remaining of Initial (n = 1), 10 min” value (both, human, s9, 10 min)?
Its value is 2.8%.

What about the “% Remaining of Initial (n = 1), 20 min” value (both, human, s9, 20 min) of the same compound?
The value was less than 1.0%.

What about the “% Remaining of Initial (n = 1), 30 min” value (both, human, s9, 0.5 h) of the same compound?
Its value is less than 1.0%.

And the “% Remaining of Initial (n = 1), 60 min” value (both, human, s9, 1 h)?
Its value is less than 1.0%.

What about the “Concentration (μM) of analyte PEA, 0 min” value (male, Beagle, dog, 0 min) of the same compound?
The value was 0.069 µM.

What about the “Concentration (μM) … 10 min” value (male, Beagle, dog, 10 min) of the same compound?
Its value is 0.51 µM.

And the “Concentration (μM) … 20 min” value (male, Beagle, dog, 20 min)?
The value was 0.34 µM.

And the “Concentration (μM) … 30 min” value (male, Beagle, dog, 30 min)?
Its value is 0.29 µM.

What about the “Concentration (μM) … 60 min” value (male, Beagle, dog, 60 min) of the same compound?
The value was 0.13 µM.

And the “% Remaining of Initial (n = 1), 0 min” value (male, Beagle, dog, s9, 0 h)?
The value was 100%.

And the “% Remaining of Initial (n = 1), 10 min” value (male, Beagle, dog, s9, 10 min)?
Its value is 4.6%.

What about the “% Remaining of Initial (n = 1), 20 min” value (male, Beagle, dog, s9, 20 min) of the same compound?
The value was 1.6%.

What about the “% Remaining of Initial (n = 1), 30 min” value (male, Beagle, dog, s9, 0.5 h) of the same compound?
The value was less than 1.0%.

And the “% Remaining of Initial (n = 1), 60 min” value (male, Beagle, dog, s9, 1 h)?
The value was less than 1.0%.

What about the “Concentration (μM) of analyte PEA, 0 min” value (male, CD-1, mouse, 0 min) of the same compound?
The value was 0.18 µM.

And the “Concentration (μM) … 10 min” value (male, CD-1, mouse, 10 min)?
The value was 0.24 µM.

What about the “Concentration (μM) … 20 min” value (male, CD-1, mouse, 20 min) of the same compound?
The value was 0.13 µM.

And the “Concentration (μM) … 30 min” value (male, CD-1, mouse, 30 min)?
Its value is 0.083 µM.

And the “Concentration (μM) … 60 min” value (male, CD-1, mouse, 60 min)?
The value was 0.015 µM.

And the “% Remaining of Initial (n = 1), 0 min” value (male, CD-1, mouse, s9, 0 h)?
The value was 100%.

And the “% Remaining of Initial (n = 1), 10 min” value (male, CD-1, mouse, s9, 10 min)?
The value was less than 1.0%.

And the “% Remaining of Initial (n = 1), 20 min” value (male, CD-1, mouse, s9, 20 min)?
Its value is less than 1.0%.

What about the “% Remaining of Initial (n = 1), 30 min” value (male, CD-1, mouse, s9, 0.5 h) of the same compound?
The value was less than 1.0%.

And the “% Remaining of Initial (n = 1), 60 min” value (male, CD-1, mouse, s9, 1 h)?
The value was less than 1.0%.

What about the half-life at 1 μM (male, CD-1, mouse, s9, Half-life (min)) of the same compound?
Its half-life at 1 μM is less than 1 min.

What about the “Concentration (μM) of analyte PEA, 0 min” value [1] of the same compound?
Its value is 0 µM.

And the “Concentration (μM) … 10 min” value [2]?
The value was 0.14 µM.

And the “Concentration (μM) … 20 min” value [3]?
The value was 0.091 µM.

What about the “Concentration (μM) … 30 min” value [4] of the same compound?
The value was 0.059 µM.

What about the “Concentration (μM) … 60 min” value [5] of the same compound?
The value was 0.0062 µM.

What about the “% Remaining of Initial (n = 1), 0 min” value [6] of the same compound?
The value was 100%.

And the “% Remaining of Initial (n = 1), 10 min” value [7]?
Its value is less than 1.0%.

What about the “% Remaining of Initial (n = 1), 20 min” value [8] of the same compound?
The value was less than 1.0%.

And the “% Remaining of Initial (n = 1), 30 min” value [9]?
Its value is less than 1.0%.

What about the “% Remaining of Initial (n = 1), 60 min” value [10] of the same compound?
Its value is less than 1.0%.

What about the half-life at 1 μM (male, Sprague-Dawley, rat, s9, Half-life (min)) of the same compound?
The half-life at 1 μM was less than 1 min.

Which results are given for `CCCCC/C=C\C/C=C\CCCCCCCC(=O)OCC(COC(=O)CCC(=O)OCCNC(=O)CCCCCCCCCCCCCCC)OC(=O)CCCCCCC/C=C\C/C=C\CCCCC` (stereo not shown) [Compound I-13]?
Concentration, analyte PEA (both, human, 0 min): 0 nM; Concentration, analyte PEA (both, human, 10 min): 0 nM; Concentration, analyte PEA (both, human, 20 min): 0 nM; Concentration, analyte PEA (both, human, 30 min): 0 nM; Concentration, analyte PEA (both, human, 60 min): 0 nM; % Remaining of Initial (n = 1) (both, human, s9, 0 h): 100%; % Remaining of Initial (n = 1) (both, human, s9, 10 min): 93%; % Remaining of Initial (n = 1) (both, human, s9, 20 min): 87%; % Remaining of Initial (n = 1) (both, human, s9, 0.5 h): 78%; % Remaining of Initial (n = 1) (both, human, s9, 1 h): 45%; half-life at 1 μM (both, human, s9, Half-life): 58 min; Concentration, analyte PEA (male, Beagle, dog, 0 min): 15 nM; Concentration, analyte PEA (male, Beagle, dog, 10 min): 25 nM; Concentration, analyte PEA (male, Beagle, dog, 20 min): 20 nM; Concentration, analyte PEA (male, Beagle, dog, 30 min): 24 nM; Concentration, analyte PEA (male, Beagle, dog, 60 min): 21 nM; % Remaining of Initial (n = 1) (male, Beagle, dog, s9, 0 h): 100%; % Remaining of Initial (n = 1) (male, Beagle, dog, s9, 10 min): 70%; % Remaining of Initial (n = 1) (male, Beagle, dog, s9, 20 min): 61%; % Remaining of Initial (n = 1) (male, Beagle, dog, s9, 0.5 h): 61%; % Remaining of Initial (n = 1) (male, Beagle, dog, s9, 1 h): 37%; Concentration, analyte PEA (male, CD-1, mouse, 0 min): 0 nM; Concentration, analyte PEA (male, CD-1, mouse, 10 min): 0 nM; Concentration, analyte PEA (male, CD-1, mouse, 20 min): 0 nM; Concentration, analyte PEA (male, CD-1, mouse, 30 min): 0 nM; Concentration, analyte PEA (male, CD-1, mouse, 60 min): 0 nM; % Remaining of Initial (n = 1) (male, CD-1, mouse, s9, 0 h): 100%; % Remaining of Initial (n = 1) (male, CD-1, mouse, s9, 10 min): 89%; % Remaining of Initial (n = 1) (male, CD-1, mouse, s9, 20 min): 90%; % Remaining of Initial (n = 1) (male, CD-1, mouse, s9, 0.5 h): 79%; % Remaining of Initial (n = 1) (male, CD-1, mouse, s9, 1 h): 78%; half-life at 1 μM (male, CD-1, mouse, s9, Half-life): > 60 min; Concentration, analyte PEA [1]: 0 nM; Concentration, analyte PEA [2]: 0 nM; Concentration, analyte PEA [3]: 0 nM; Concentration, analyte PEA [4]: 0 nM; Concentration, analyte PEA [5]: 0 nM; % Remaining of Initial (n = 1) [6]: 100%; % Remaining of Initial (n = 1) [7]: 76%; % Remaining of Initial (n = 1) [8]: 74%; % Remaining of Initial (n = 1) [9]: 59%; % Remaining of Initial (n = 1) [10]: 45%; half-life at 1 μM (male, Sprague-Dawley, rat, s9, Half-life): 50 min
